From patent publication US11224619B2, “Formulations and methods for treatment of inflammatory skin diseases” (Zemtsov Enterprises, LLC, priority 2012, dated 2022)

System: atopic dermatitis / plaque psoriasis
Test: Response of individual study subjects to earlier therapy

Molecule: C[C@H]1C[C@H]2[C@@H]3CCC4=CC(=O)C=C[C@]4(C)[C@@]3(F)[C@@H](O)C[C@]2(C)[C@@]1(O)C(=O)CCl [clobetasol]
- Response to earlier therapy (Subject #2, chronic atopic dermatitis on the neck): unresponsive

Molecule: CC(=O)OCC(=O)[C@@]12OC(C)(C)O[C@@H]1C[C@H]1[C@@H]3C[C@H](F)C4=CC(=O)C=C[C@]4(C)[C@@]3(F)[C@@H](O)C[C@@]12C [fluocinonide]
- Response to earlier therapy (Subject #5, persistent psoriatic lesions on the abdomen): unresponsive

Molecule: etanercept
- Disease control under ongoing therapy (Subject #5, chronic severe plaque psoriasis, subcutaneous injections): reasonable control
